Experimental data published in patent US20240245783A1, “METALLO-BETA-LACTAMASE INHIBITOR” (priority 2021, published 2024).

Key:
[1] = test system: IMP-1-expressing Klebsiella pneumoniae; experiment: Survival of Leukopenia mice infected with IMP-1-expressing Klebsiella pneumoniae (Test Example 6); assay type: in vivo; settings: meropenem 10 mg/kg alone subcutaneously; 48 hours; Leukopenia ddY mice
Description: DTPA-conjugated cefalexin (compound 1)'s effect of enhancing the drug susceptibility of pathogenic bacteria was examined by an in vivo experiment using bacteria-infected mice. To prepare a compromised Leukopenia mouse model, 0.1 mL of cyclophosphamide monohydrate (Sigma-Aldrich) prepared with PBS was administered intraperitoneally to 4-week-old male ddY mice (Japan SLC) at 250 mg/kg at 4 days before infection. IMP-1-expressing Klebsiella pneumoniae used herein was a clinical isolate provided by Kumamoto University Hospital. The bacteria were cultured overnight with shaking in LB medium at 37° C., then diluted 50-fold with LB medium, and further cultured with shaking, so that the turbidity (600 nm) was 1.5 or higher. The bacteria were centrifuged to remove the medium, washed twice with PBS, and then diluted with PBS to 5×10^5 CFU/mL. In the mouse infection experiment, each Leukopenia mouse was infected with 0.1 mL (5×10^4 CFU) of IMP-1-expressing Klebsiella pneumoniae by intraperitoneal injection. Thirty minutes after infection, 0.1 mL of a mixed solution containing meropenem (Wako Pure Chemical Industries, Ltd.) and compound 1 (DTPA-CEF) was subcutaneously administered to each mouse of a treatment mouse group at 10 mg/kg and 50 mg/kg, respectively. […] Forty-eight hours after infection, mice were assessed for viability. […]

[2] = test system: multidrug-resistant Pseudomonas aeruginosa; experiment: Growth suppression of multidrug-resistant Pseudomonas aeruginosa clinical isolates (Test Example 7); assay type: cell-based; settings: MEPM 2 μg/ml alone, compound 8 20 μM (15.5 μg/ml) alone, Combination = both, 3 wells
Description: The effect of NODA-GA-conjugated doripenem (compound 8) on the susceptibility of a Pseudomonas aeruginosa clinical isolate to a carbapenem antibacterial agent was evaluated by the following method. The Pseudomonas aeruginosa clinical isolate was cultured overnight with shaking in LB medium. The bacterial solution was diluted to 1/1000 with LB medium, used as a test bacterial solution, and then seeded in a 96-well plate. Meropenem (Wako Pure Chemical Industries, Ltd.) was added to this bacterial solution in such a manner that the concentration was 2 μg/ml. The effect of NODA-GA-doripenem alone was also examined. The bacteria were cultured in an incubator at 37° C. for one day, and the growth at that time was measured by turbidity (655 nm).
MEPM in Table 1 is meropenem (2 μg/ml) administered alone; NODA-GA-doripenem is compound 8 (20 μM; 15.5 μg/ml) administered alone; Combination means a combined use of meropenem (2 μg/ml) and compound 8 (20 μM; 15.5 μg/ml).

[3] = test system: E. coli clinical isolate expressing IMP-1; experiment: Meropenem MIC against E. coli clinical isolate expressing IMP-1 (Test Example 10); assay type: cell-based; settings: Escherichia coli, 24 h, read-out: minimum inhibitory concentration
Description: The enhancing effect of DTPA-ADCA on the susceptibility of E. coli clinical isolate expressing IMP-1 to a carbapenem antibacterial agent (meropenem) was evaluated by the following method. The E. coli clinical isolate was cultured overnight with shaking in LB medium. The bacterial solution was diluted to 1/1000 with LB medium, used as a test bacterial solution, and then seeded in a 96-well plate. Meropenem (Wako Pure Chemical Industries, Ltd.) was added to the bacterial solution, thereby performing two-step dilution from a maximum of 10 μg/ml. The bacteria were cultured in an incubator at 37° C. for one day, and growth at that time was measured by turbidity (655 nm). The meropenem concentration at which no bacterial growth had been observed was defined as the minimum inhibitory concentration.
The effect of DTPA-ADCA on the susceptibility of an E. coli clinical isolate to meropenem was evaluated by the following method. The E. coli clinical isolate was cultured overnight with shaking in LB medium. The bacterial solution was diluted to 1/1000 with LB medium, used as the test bacterial solution, and then seeded in a 96-well plate. Meropenem (Wako Pure Chemical Industries, Ltd.) was added to this bacterial solution in the range of 0.1 μg/ml to 0.005 μg/ml. Here, DTPA or DTPA-ADCA was used in combination therewith at a concentration of […], and the effect on bacterial growth was examined. The bacteria were cultured in an incubator at 37° C. for one day, and the growth at that time was measured by turbidity (655 nm).
FIG. 20 depicts the results. Multidrug-resistant E. coli was cultured with compounds having the indicated concentrations and the bacterial load was assessed by turbidity after 24 hours. […] Combined use of DTPA-ADCA (20 μM) reduced the minimum inhibitory concentration of meropenem to […] and enhanced the antibacterial activity by 100 times.

C[C@@H](O)[C@H]1C(=O)N2C(C(=O)O)=C(S[C@@H]3CN[C@H](C(=O)N(C)C)C3)[C@H](C)[C@H]12 [meropenem, reference compound]
survival [1]: All mice of the meropenem administration group died
suppression of bacterial growth ([2]; strain 808#1): X (x indicates that the number of wells in which suppression of bacterial growth was confirmed was 1 or less)
suppression of bacterial growth ([2]; strain 808#2): X (x indicates that the number of wells in which suppression of bacterial growth was confirmed was 1 or less)
suppression of bacterial growth ([2]; strain MR1): X (x indicates that the number of wells in which suppression of bacterial growth was confirmed was 1 or less)
suppression of bacterial growth ([2]; strain MR2): X (x indicates that the number of wells in which suppression of bacterial growth was confirmed was 1 or less)
suppression of bacterial growth ([2]; strain MR3): X (x indicates that the number of wells in which suppression of bacterial growth was confirmed was 1 or less)
suppression of bacterial growth ([2]; strain MR4): X (x indicates that the number of wells in which suppression of bacterial growth was confirmed was 1 or less)
suppression of bacterial growth ([2]; strain MR5): X (x indicates that the number of wells in which suppression of bacterial growth was confirmed was 1 or less)
suppression of bacterial growth ([2]; strain MR6): X (x indicates that the number of wells in which suppression of bacterial growth was confirmed was 1 or less)
suppression of bacterial growth ([2]; strain MR7): X (x indicates that the number of wells in which suppression of bacterial growth was confirmed was 1 or less)
suppression of bacterial growth ([2]; strain MR8): X (x indicates that the number of wells in which suppression of bacterial growth was confirmed was 1 or less)
suppression of bacterial growth ([2]; strain MR9): X (x indicates that the number of wells in which suppression of bacterial growth was confirmed was 1 or less)
suppression of bacterial growth ([2]; strain MR10): X (x indicates that the number of wells in which suppression of bacterial growth was confirmed was 1 or less)
suppression of bacterial growth ([2]; strain MR11): X (x indicates that the number of wells in which suppression of bacterial growth was confirmed was 1 or less)
suppression of bacterial growth ([2]; strain MR12): X (x indicates that the number of wells in which suppression of bacterial growth was confirmed was 1 or less)
suppression of bacterial growth ([2]; strain MR13): X (x indicates that the number of wells in which suppression of bacterial growth was confirmed was 1 or less)
suppression of bacterial growth ([2]; strain MR14): X (x indicates that the number of wells in which suppression of bacterial growth was confirmed was 1 or less)
suppression of bacterial growth ([2]; strain MR15): X (x indicates that the number of wells in which suppression of bacterial growth was confirmed was 1 or less)
suppression of bacterial growth ([2]; strain MR16): X (x indicates that the number of wells in which suppression of bacterial growth was confirmed was 1 or less)
suppression of bacterial growth ([2]; strain NM1): X (x indicates that the number of wells in which suppression of bacterial growth was confirmed was 1 or less)
suppression of bacterial growth ([2]; strain NM2): X (x indicates that the number of wells in which suppression of bacterial growth was confirmed was 1 or less)
suppression of bacterial growth ([2]; strain NM3): X (x indicates that the number of wells in which suppression of bacterial growth was confirmed was 1 or less)
suppression of bacterial growth ([2]; strain NM4): X (x indicates that the number of wells in which suppression of bacterial growth was confirmed was 1 or less)
suppression of bacterial growth ([2]; strain NM5): X (x indicates that the number of wells in which suppression of bacterial growth was confirmed was 1 or less)
MIC [3]: 10 µg/mL
